In the SangsterLogP compilation:

What was measured:
[1] = method code SF-AS, from PMID: 8197227; conditions: pH 7.4
[2] = not given; remark: listed apart in the source
[3] = method code SF-C, from DOI: 10.1038/194178b0
[4] = method code SF-AS, from M. Kuchar, J. Tomkova, V. Rejholec, & O. Roubinek. (1992). Some problems of the chromatographic evaluation of lipophicity. In Kuchar, M. (Ed.) QSAR in Design of Bioactive Compounds (pp. 65-81). Prous …; conditions: pH 3.4
[5] = method code SF-AS, from DOI: 10.1002/ps.2780370107; conditions: pH 0.0
[6] = not given; remark: listed apart in the source
[7] = not given; remark: listed apart in the source
[8] = not given; remark: listed apart in the source
[9] = not given; remark: listed apart in the source
[10] = not given; remark: listed apart in the source
[11] = method code SF-AS, from DOI: 10.1111/j.1476-5381.1975.tb07619.x, PMID: 1182339; conditions: pH 10.0
[12] = not given; remark: listed apart in the source
[13] = method code SF-AS, from DOI: 10.1021/bi00730a008, PMID: 4688860
[14] = not given; remark: listed apart in the source
[15] = not given; remark: listed apart in the source
[16] = method code SF-AS, from DOI: 10.1080/00021369.1974.10861343; conditions: for logD: pH 3.0
[17] = method code SF-HPLC, from DOI: 10.1002/jps.2600831027, PMID: 7884677; conditions: pH 2.0
[18] = from Pratesi, P.; Villa, L.; Ferri, V.; DeMicheli, C.; Grana, E.; Grieco, C.; Silipo, C.; Vittoria, A. (1979). On the additive-constitutive properties of substituent hydrophobic parameters in a set of …
[19] = method code SF-AS, from DOI: 10.1021/je700381u; conditions: pH 0.0
[20] = method code SF-GLC, from DOI: 10.1016/s0021-9673(01)83612-8; conditions: pH 13.0
[21] = method code SF-AS, from DOI: 10.1016/0378-5173(90)90042-3
[22] = method code SF-AS, from DOI: 10.1021/jf60177a051
[23] = method code SF-AS, from DOI: 10.1021/jm00234a001, PMID: 1003419
[24] = method code SF-HPLC, from DOI: 10.1016/0378-5173(87)90096-2; conditions: pH 8.0
[25] = not given; remark: listed apart in the source
[26] = method code SF-AS, from DOI: 10.1093/chemse/13.4.619; conditions: pH 7.2

With `O=C(O)c1ccccc1C(=O)O` the logP was 0.87.

`NC(=S)NNC(=O)c1ccc2c(c1)OCO2` gave a logD [1] of 0.21.

For `CCOP(=S)(OCC)Oc1cc(-c2ccccc2)on1`, the logP [2] was 4.58.

`O=C(Nc1ccccc1)N(Cc1ccc(Cl)cc1)C1CCCC1` showed a logP [2] of 4.7.

For `O=C(O)COc1cccc(C(F)(F)F)c1`, the logP [3] was 2.52.

For `O=C(O)CCc1ccc(OCc2ccccc2)c(Cl)c1`, the logD [4] was 3.89.

Work on `CCOP(=O)(O)Cc1ccccc1` yielded a logD [5] of 0.81.

Work on `Cc1csc(NNC(=O)c2ccc3c(c2)OCO3)n1` yielded a logD [1] of 1.41.

In the case of `CC(=O)Nc1ccccc1Cl`, the logP [6] is reported as 1.35.

Compound `O=C(O)CCCCCCCCCCCOC(=O)Oc1ccccc1` has a logP [7] of 4.26.

`CC[C@H]1CCC[C@H](O[C@H]2CC[C@H](N(C)C)[C@@H](C)O2)[C@@H](C)C(=O)C2=C[C@@H]3[C@@H](C=C(C)[C@@H]4C[C@@H](O[C@@H]5O[C@@H](C)[C@H](OC)[C@@H](OC)[C@H]5OC)C[C@@H]34)[C@@H]2CC(=O)O1` showed a logP of 4.92.

Compound `CNc1ccccc1` has a logP [6] of 1.69.

Compound `COCc1ccc(COC(=O)C2C(C=C(C)C)C2(C)C)cc1` (stereo not given) has a logP [8] of 4.5.

In the case of `c1ccc2c(c1)ccc1c3ccccc3ccc21`, the logP [9] is reported as 6.01.

For `COc1cccc(N)c1`, the logP [10] was 1.11.

`N=C(N)NC(=O)Nc1ccc(Cl)c(Cl)c1` gave a logD [11] of 2.39.

With `COCCN1CCc2cccc(Cl)c2CC1` the logP [12] was 3.

Work on `Cc1ccc(NC=O)cc1` yielded a logP [13] of 1.61.

With `c1ccc2ccccc2c1` the logP [14] was 3.43.

Work on `Clc1cccc2c1CCNCC2` yielded a logP [12] of 2.4.

With `CCCCCCOc1ccc(CC(=O)O)cc1` the logD [4] was 3.96.

`O=C(O)CCCCCCCCCCCCCCCOC(=O)Oc1ccccc1` showed a logP [7] of 4.67.

`COc1ccc(NC(=O)NC(=N)N)cc1` gave a logD [11] of 0.56.

In the case of `O=CNc1ccc([N+](=O)[O-])cc1`, the logP [13] is reported as 1.43.

Compound `CCOP(=O)(O)Cc1ccc(S(C)(=O)=O)cc1` has a logD [5] of -0.4.

`Cc1ccccc1CCN` gave a logP [15] of 1.6.

`CC(C)Cc1ccc(CC(=O)O)cc1` showed a logD [4] of 3.35.

Compound `O=C(O)/C=C/Oc1ccccc1` has a logD [16] of 2.27.

Compound `COCc1ccc(C(=O)O)cc1` has a logD [17] of 1.76.

For `CCCN1CCc2cccc(Cl)c2CC1`, the logP [12] was 3.5.

With `O=S(=O)(O)c1ccc2ccccc2c1` the logP [18] was 1.07.

With `O=C(O)c1cccc(F)c1Cl` the logD [19] was 1.74.

Compound `NC1CCc2ccccc2C1` (stereo not given) has a logD [20] of 2.08.

`COP(=S)(OC)Oc1c(Cl)cc(C)cc1Cl` gave a logP [2] of 4.36.

Work on `COC(=O)c1cc(=O)[nH]c(=O)[nH]1` yielded a logP [21] of 0.63.

`CCCCCOC(=O)c1cc(=O)[nH]c(=O)[nH]1` showed a logP [21] of 1.62.

Work on `O=C(O)/C=C/Oc1ccccc1Cl` yielded a logD [16] of 2.69.

`CC1=C(C(=O)Nc2ccccc2)SCCO1` showed a logP [22] of 1.73.

With `CN[C@H](C)[C@@H](OC)c1ccccc1` (relative stereo) the logD [20] was 1.87.

In the case of `CCCOC(=O)C=COc1ccccc1`, the logP [16] is reported as 3.72.

`COc1ccc(NC=O)cc1` gave a logP [13] of 1.03.

`N=C(N)NC(=O)Nc1cccc([N+](=O)[O-])c1` gave a logD [11] of 1.28.

With `CS(=O)(=O)NCCN1CCc2cccc(Cl)c2CC1` the logP [12] was 2.51.

`Cc1cccc(OCC(=O)O)c1` gave a logP [3] of 1.88.

Work on `OC[C@H]1O[C@@H](Oc2ccc(I)c(O[C@@H]3O[C@H](CO)[C@@H](O)[C@H](O)[C@H]3O)c2I)[C@H](O)[C@@H](O)[C@@H]1O` yielded a logP [23] of -1.31.

With `CC1=C(C(=O)Nc2ccccc2)S(=O)CCO1` (stereo not given) the logP [22] was 0.64.

`COc1ccc(C(O)C(=O)O)cc1` (stereo not given) showed a logD [4] of 0.63.

Work on `NC(=O)Cc1cccnc1` yielded a logD [24] of -0.59.

With `CCOC(=O)C=COc1ccccc1` the logP [16] was 3.18.

`O=C(O)CCCCCCCOC(=O)Oc1ccccc1` showed a logP [7] of 3.39.

In the case of `N#CCCOc1ccccc1`, the logP [18] is reported as 1.61.

In the case of `COc1cccc(NC=O)c1`, the logP [13] is reported as 1.25.

`O=C(O)c1ccc(F)c(Br)c1` showed a logD [19] of 3.56.

In the case of `O=C(O)Cc1ccc(C(=O)O)cc1`, the logD [17] is reported as 1.24.

Compound `O=C(O)c1cc(F)ccc1Cl` has a logD [19] of 2.39.

Work on `NC(=O)Cc1ccc2cccccc1-2` yielded a logP [25] of 2.48.

In the case of `O=[N+]([O-])c1ccc2cccccc1-2`, the logP [25] is reported as 2.59.

For `OCc1ccc(F)cc1`, the logP [6] was 1.36.

Compound `O=C(O)c1ccccc1O` has a logP [9] of 1.75.

For `Nc1ccccc1[N+](=O)[O-]`, the logP [10] was 1.62.

With `O=C(NNc1nccs1)c1ccc2c(c1)OCO2` the logD [1] was 1.06.

With `CCOP(=O)(OCC)O/C(=C/Cl)c1ccc(Cl)cc1Cl` the logP [14] was 3.84.

`O=C(O)c1ccc2cccccc1-2` gave a logD ([25]; pH 3.4) of 2.88.

With `C#CCc1ccc(COC(=O)C2C(C=C(C)C)C2(C)C)o1` (stereo not given) the logP [8] was 6.67.

For `O=C(O)COC(=O)Oc1ccccc1`, the logP [7] was 1.72.

Compound `OCCCNc1ccccc1` has a logP [15] of 0.57.

Work on `CC(=O)OC(c1ccc(Cl)c(Cl)c1)C(Cl)(Cl)Cl` (stereo not given) yielded a logP [8] of 4.92.

For `CCOP(=O)(O)Cc1ccc(-c2ccccc2)cc1`, the logD [5] was 2.37.

In the case of `NC(=O)CCCc1ccccn1`, the logD [24] is reported as 0.06.

Compound `OCc1ccncc1` has a logP [6] of -0.04.

In the case of `O=[N+]([O-])c1ccc(Cc2ccncc2)cc1`, the logD [26] is reported as 2.73.

With `CNC(=O)c1c(I)c(NC(C)=O)c(I)c(O[C@@H]2O[C@H](CO)[C@@H](O)[C@H](O)[C@H]2O)c1I` the logP [23] was -1.49.

`c1ccc2c(c1)cc1ccc3cccc4ccc2c1c34` gave a logP [9] of 6.57.

For `c1cc2cccc3c4cccc5cccc(c(c1)c23)c54`, the logP [9] was 6.53.

With `NCCCCc1ccccc1` the logP [15] was 2.25.

Work on `O=C(O)c1ccc(CCl)cc1` yielded a logD [17] of 2.12.

Work on `C(=NNc1nccs1)c1ccc2c(c1)OCO2` yielded a logD [1] of 1.5.

`Cc1ccc(CCN)cc1` gave a logP [15] of 1.83.

`O=C(O)c1cc(F)ccc1Br` gave a logD [19] of 2.21.

For `CC1=C(C(=O)Nc2ccccc2-c2ccccc2)SCCO1`, the logP [22] was 2.54.

Work on `Oc1ccc(C2CCCCC2)cc1` yielded a logP [18] of 4.22.

`Nc1ccc(F)c(Cl)c1` gave a logP [14] of 1.95.

`CCOP(=O)(O)Cc1ccc(F)cc1` showed a logD [5] of 1.25.

In the case of `Cc1cccc(C)c1O`, the logP [10] is reported as 2.38.

`CCOC(=O)c1ccc2cccccc1-2` gave a logP [25] of 3.83.

Work on `CC(=O)c1ccncc1` yielded a logD [26] of 0.4.

Work on `N#Cc1cccc(OCC(=O)O)c1` yielded a logP [3] of 1.2.

`CC1(C)C(/C=C(\Cl)C(F)(F)F)C1C(=O)OC(C#N)c1cccc(Oc2ccccc2)c1` (stereo not given) gave a logP [8] of 6.02.

Work on `CC(=O)c1cccc(OCC(=O)O)c1` yielded a logP [3] of 1.34.

In the case of `CCOC(=O)c1cc(=O)[nH]c(=O)[nH]1`, the logP [21] is reported as 0.68.

`O=C(O)COc1ccc(Cl)cc1Cl` showed a logP of 2.71.

Work on `COc1cccc(O)c1` yielded a logP [10] of 1.52.

Work on `Cc1cc(C)cc(O)c1` yielded a logP [14] of 2.54.

`NC(=O)Cc1ccccn1` gave a logD [24] of -0.64.

With `O=C(O)c1cccc(Oc2ccccc2)c1` the logP was 3.6.

For `c1ccc(Cc2ccncc2)cc1`, the logD [26] was 2.62.

`O=C(O)c1ccc(CO)cc1` showed a logD [17] of 0.92.

Compound `CNS(=O)(=O)c1ccccc1` has a logP [18] of 0.92.

Work on `CC(=O)Nc1c(I)c(C(=O)N[C@H]2C(O)O[C@H](CO)[C@@H](O)[C@@H]2O)c(I)c(N(C)C(C)=O)c1I` (stereo not given in full) yielded a logP [23] of -1.89.

With `CC1=C(C(=O)O)SCCO1` the logP [22] was 0.04.

`NC(=O)Cc1ccncc1` showed a logD [24] of -0.59.

With `O=C(c1ccccc1)c1ccncc1` the logD [26] was 1.9.

Compound `COc1cc(NC(=O)NC(=N)N)ccc1C#N` has a logD [11] of 1.28.

`O=C1OCc2c(Cl)c(Cl)c(Cl)c(Cl)c21` gave a logP [2] of 3.22.

In the case of `CC(C)CCOC(=O)c1cc(=O)[nH]c(=O)[nH]1`, the logP [21] is reported as 1.48.
